Assay results: patent publication US20050065208A1, “Benzofuranes and their use in the treatment of atrial fibrillation” (priority 2001, published 2005)
Like-named read-outs stand apart in the source and are kept apart here. One block for each compound: values may come before it.

How the values were obtained:
[1] = tested on: Ito, transient outward K-current; parameters: key: Yes: The compound has been demonstrated to inhibit the particular current (reference within parenthesis).; No: The compound has been demonstrated to not inhibit the particular current (reference within parenthesis).; U: No data regarding interaction of the compound with the particular current has been found in the literature; conditions: Table 2, literature; cited from earlier work
[2] = target: T1, IK(ATP), ATP-sensitive K-current (Homo sapiens, UniProt Q14654); parameters: key: Yes: The compound has been demonstrated to inhibit the particular current (reference within parenthesis).; No: The compound has been demonstrated to not inhibit the particular current (reference within parenthesis).; U: No data regarding interaction of the compound with the particular current has been found in the literature; conditions: Table 2, literature; cited from earlier work
T1 construct: electrophysiology technique applied to cardiomyocyte cultures; endogenous in cells; current induced with dinitrophenole
T1 sequence (Q14654 whole entry): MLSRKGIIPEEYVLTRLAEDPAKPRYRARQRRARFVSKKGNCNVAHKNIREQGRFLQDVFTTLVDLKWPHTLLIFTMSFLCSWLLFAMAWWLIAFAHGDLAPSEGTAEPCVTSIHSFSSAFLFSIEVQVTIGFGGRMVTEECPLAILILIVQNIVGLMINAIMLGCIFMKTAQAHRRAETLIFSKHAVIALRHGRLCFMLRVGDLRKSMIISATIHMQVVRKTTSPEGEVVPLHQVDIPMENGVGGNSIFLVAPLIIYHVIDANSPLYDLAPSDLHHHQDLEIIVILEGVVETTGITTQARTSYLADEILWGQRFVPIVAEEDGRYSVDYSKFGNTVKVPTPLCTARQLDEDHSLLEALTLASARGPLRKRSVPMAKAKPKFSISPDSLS
T1 sequence (O60706 whole entry partner): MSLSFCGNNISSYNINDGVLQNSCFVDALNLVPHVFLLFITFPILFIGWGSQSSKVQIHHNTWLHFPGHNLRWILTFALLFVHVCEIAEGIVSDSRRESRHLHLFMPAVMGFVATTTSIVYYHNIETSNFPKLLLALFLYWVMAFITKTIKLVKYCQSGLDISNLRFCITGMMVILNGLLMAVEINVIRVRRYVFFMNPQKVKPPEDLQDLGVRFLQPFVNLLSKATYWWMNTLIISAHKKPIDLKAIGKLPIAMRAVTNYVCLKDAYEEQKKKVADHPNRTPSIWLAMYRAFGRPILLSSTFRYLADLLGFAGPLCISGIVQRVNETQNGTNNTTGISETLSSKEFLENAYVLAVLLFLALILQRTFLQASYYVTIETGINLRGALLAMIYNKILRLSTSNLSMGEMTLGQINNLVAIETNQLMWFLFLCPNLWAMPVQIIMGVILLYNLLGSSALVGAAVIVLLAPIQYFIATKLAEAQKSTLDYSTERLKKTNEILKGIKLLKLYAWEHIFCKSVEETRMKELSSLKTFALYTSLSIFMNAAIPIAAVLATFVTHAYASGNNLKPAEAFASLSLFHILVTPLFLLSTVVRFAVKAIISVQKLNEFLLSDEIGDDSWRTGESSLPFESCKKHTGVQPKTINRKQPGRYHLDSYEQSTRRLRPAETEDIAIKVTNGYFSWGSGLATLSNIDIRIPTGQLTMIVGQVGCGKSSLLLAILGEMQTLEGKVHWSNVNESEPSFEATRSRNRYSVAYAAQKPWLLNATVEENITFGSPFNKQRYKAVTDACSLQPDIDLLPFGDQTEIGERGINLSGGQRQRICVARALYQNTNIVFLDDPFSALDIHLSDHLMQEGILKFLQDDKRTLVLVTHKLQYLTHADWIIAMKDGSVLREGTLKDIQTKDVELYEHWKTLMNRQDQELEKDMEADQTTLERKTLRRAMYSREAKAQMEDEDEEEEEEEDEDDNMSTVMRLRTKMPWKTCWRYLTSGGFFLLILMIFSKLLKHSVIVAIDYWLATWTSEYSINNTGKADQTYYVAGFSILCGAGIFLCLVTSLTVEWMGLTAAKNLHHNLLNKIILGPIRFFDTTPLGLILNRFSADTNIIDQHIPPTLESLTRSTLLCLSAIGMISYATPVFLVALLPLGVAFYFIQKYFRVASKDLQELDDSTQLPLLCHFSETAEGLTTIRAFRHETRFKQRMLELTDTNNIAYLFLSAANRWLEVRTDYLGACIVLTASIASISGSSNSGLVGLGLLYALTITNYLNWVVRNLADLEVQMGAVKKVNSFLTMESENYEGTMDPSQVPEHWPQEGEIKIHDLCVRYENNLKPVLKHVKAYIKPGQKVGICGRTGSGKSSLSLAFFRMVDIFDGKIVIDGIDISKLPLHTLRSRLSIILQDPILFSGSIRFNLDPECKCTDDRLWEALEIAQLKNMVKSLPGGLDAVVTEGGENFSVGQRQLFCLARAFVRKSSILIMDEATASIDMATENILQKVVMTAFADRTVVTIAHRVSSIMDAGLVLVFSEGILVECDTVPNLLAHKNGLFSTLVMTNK

[3] = target: IKs, slow component of the delayed rectifier K-current (Homo sapiens, UniProt P51787); parameters: key: Yes: The compound has been demonstrated to inhibit the particular current (reference within parenthesis).; No: The compound has been demonstrated to not inhibit the particular current (reference within parenthesis).; U: No data regarding interaction of the compound with the particular current has been found in the literature; conditions: Table 2, literature; cited from earlier work
[4] = target: INa, depolarizing Na-current (Homo sapiens, UniProt Q14524); parameters: key: Yes: The compound has been demonstrated to inhibit the particular current (reference within parenthesis).; No: The compound has been demonstrated to not inhibit the particular current (reference within parenthesis).; U: No data regarding interaction of the compound with the particular current has been found in the literature; conditions: Table 2, literature; cited from earlier work
Sequence of INa, depolarizing Na-current (Q14524 whole entry): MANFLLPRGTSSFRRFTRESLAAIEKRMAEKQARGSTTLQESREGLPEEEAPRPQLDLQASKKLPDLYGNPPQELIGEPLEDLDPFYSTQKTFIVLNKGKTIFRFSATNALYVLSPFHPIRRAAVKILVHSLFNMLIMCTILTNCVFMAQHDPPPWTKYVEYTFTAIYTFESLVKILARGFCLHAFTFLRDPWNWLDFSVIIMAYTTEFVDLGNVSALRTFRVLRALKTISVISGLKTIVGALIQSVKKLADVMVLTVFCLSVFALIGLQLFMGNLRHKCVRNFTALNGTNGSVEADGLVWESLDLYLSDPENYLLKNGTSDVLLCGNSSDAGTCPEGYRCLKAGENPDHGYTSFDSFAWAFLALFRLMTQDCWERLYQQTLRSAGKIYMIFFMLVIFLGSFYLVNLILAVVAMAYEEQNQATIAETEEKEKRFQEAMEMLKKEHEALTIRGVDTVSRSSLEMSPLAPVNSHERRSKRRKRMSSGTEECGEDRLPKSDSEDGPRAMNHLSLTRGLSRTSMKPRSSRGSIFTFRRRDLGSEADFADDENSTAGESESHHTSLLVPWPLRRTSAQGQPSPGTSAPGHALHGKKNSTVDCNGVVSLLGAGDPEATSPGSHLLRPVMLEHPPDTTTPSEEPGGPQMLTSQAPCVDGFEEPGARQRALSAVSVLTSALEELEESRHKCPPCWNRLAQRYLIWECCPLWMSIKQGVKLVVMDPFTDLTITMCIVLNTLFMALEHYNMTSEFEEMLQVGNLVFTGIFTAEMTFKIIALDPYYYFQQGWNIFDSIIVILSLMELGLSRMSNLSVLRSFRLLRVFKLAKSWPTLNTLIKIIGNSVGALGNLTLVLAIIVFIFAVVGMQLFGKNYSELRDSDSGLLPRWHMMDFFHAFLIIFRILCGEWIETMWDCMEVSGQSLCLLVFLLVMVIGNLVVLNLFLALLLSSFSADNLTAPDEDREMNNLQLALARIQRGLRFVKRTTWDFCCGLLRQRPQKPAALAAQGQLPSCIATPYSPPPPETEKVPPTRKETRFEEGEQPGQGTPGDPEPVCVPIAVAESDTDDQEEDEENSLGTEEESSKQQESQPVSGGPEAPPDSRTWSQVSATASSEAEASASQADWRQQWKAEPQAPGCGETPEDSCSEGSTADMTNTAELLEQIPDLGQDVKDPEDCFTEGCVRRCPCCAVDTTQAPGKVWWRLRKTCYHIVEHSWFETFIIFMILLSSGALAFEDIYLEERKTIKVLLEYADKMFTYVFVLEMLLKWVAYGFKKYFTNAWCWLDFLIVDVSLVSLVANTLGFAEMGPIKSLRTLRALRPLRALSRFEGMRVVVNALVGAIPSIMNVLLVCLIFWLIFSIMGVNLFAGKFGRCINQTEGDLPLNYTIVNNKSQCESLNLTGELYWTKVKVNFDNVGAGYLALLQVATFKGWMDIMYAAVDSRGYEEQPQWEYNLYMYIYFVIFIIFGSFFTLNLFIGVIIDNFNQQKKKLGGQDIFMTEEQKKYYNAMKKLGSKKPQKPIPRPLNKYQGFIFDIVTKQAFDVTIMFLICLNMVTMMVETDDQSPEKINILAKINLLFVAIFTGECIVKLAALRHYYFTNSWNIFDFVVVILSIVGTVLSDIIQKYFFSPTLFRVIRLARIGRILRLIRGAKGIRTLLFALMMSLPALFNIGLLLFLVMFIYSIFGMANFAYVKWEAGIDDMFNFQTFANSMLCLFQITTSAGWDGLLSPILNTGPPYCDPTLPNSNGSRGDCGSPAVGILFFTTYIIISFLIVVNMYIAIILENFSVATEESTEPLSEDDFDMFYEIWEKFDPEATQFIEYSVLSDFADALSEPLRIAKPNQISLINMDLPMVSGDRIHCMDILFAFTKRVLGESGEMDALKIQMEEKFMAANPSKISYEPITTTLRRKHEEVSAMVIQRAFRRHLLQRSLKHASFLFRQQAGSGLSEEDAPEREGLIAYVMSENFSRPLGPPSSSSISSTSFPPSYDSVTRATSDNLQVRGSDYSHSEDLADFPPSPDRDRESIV

[5] = tested on: IK1, inward rectifier K-current; parameters: key: Yes: The compound has been demonstrated to inhibit the particular current (reference within parenthesis).; No: The compound has been demonstrated to not inhibit the particular current (reference within parenthesis).; U: No data regarding interaction of the compound with the particular current has been found in the literature; conditions: Table 2, literature; cited from earlier work
[6] = target: T2, IK(ACh), AcetylCholine activated K-current (Homo sapiens, UniProt P48544+P48549); parameters: key to Blocking activity on IK(ACh): Yes: The compound has been demonstrated to inhibit the particular current (reference within parenthesis).; No: The compound has been demonstrated to not inhibit the particular current (reference within parenthesis).; U: No data regarding interaction of the compound with the particular current has been found in the literature; conditions: cited from earlier work; for Blocking activity on IK(ACh): Table 2, literature; for IC50: current induced by ACh or carbachol, literature value, read-out: Inhibition of IK (ACh) (Induced by ACh or Carbachol) (IC50)
T2 construct: electrophysiology technique applied to cardiomyocyte cultures; endogenous in cells
T2 sequence (P48549 1-501): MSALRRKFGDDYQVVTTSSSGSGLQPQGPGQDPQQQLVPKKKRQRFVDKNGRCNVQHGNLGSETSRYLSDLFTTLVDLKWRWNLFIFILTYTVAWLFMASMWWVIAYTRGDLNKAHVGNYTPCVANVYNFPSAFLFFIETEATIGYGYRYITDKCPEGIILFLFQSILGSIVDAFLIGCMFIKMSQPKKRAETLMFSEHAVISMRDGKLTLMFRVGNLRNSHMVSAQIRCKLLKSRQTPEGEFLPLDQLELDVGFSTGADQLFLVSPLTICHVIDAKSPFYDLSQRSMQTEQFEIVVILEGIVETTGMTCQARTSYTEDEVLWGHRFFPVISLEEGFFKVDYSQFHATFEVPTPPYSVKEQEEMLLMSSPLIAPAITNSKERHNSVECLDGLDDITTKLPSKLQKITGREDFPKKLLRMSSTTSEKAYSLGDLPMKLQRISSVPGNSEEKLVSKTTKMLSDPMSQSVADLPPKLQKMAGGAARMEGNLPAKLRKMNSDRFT
T2 sequence (P48544 1-419): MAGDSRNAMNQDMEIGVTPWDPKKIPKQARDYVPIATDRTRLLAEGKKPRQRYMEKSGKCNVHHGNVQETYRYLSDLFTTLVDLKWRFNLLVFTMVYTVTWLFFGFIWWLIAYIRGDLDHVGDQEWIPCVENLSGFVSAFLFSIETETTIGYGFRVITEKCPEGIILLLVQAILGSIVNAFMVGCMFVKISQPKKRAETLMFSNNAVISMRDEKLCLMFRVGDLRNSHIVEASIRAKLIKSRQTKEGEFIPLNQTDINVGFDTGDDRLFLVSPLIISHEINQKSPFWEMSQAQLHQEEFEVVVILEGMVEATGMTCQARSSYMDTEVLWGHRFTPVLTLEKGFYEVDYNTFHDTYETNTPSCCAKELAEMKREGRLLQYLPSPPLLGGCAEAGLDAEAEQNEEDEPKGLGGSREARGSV

[7] = target: T3, IK(Ado), adenosine activated K-current (Homo sapiens, UniProt P48544+P48549); parameters: key to Blocking activity on IK(Ado): Yes: The compound has been demonstrated to inhibit the particular current (reference within parenthesis).; No: The compound has been demonstrated to not inhibit the particular current (reference within parenthesis).; U: No data regarding interaction of the compound with the particular current has been found in the literature; conditions: cited from earlier work; for Blocking activity on IK(Ado): Table 2, literature; for IC50: literature value, read-out: Inhibition of IK (Ado) Induced by Adenosine (IC50)
T3 construct: electrophysiology technique applied to cardiomyocyte cultures; endogenous in cells
T3 sequence (P48549 1-501): T2 sequence (P48549 1-501)
T3 sequence (P48544 1-419): T2 sequence (P48544 1-419)

[8] = target: T2, IK(ACh), AcetylCholine activated K-current; test: Voltage clamp on cardiomyocyte cultures: inhibition of K-current induced by ACh or carbachol; assay type: cell-based
Description: (§1) In the present invention acute and chronic effects of various compounds have been investigated by using electrophysiology technique applied to cardiomyocyte cultures.
(§2) The inhibitory effects occur within seconds after induction of the current with ACh, Ado or dinitrophenole (DNP reduces intracellular ATP). The acute inhibitory effects caused by the compounds of the present invention on these K-currents in cardiac muscle tissue had not previously been discovered. The reasons for this include the fact that these ligand activated K-currents (IK(Ado), IK(ACh) and IK(ATP)) are preferentially active in the atrial cardiomyocytes (Workman A J et al. Cardiovasc Res 1999 September;43(4):974-84; Koumi S-I, and Wasserstorm A. American Journal of Physiology 266[35], H1812-H1821. 1994), while previous studies have been carried out with tissue from cardiac ventricles. Furthermore, IK(Ado) and IK(ACh) must first be induced via the M2 or A1 receptor (with ACh and Ado respectively) before any inhibition can be observed. Without any agonist at the extracellular site of the membrane these ligand-gated channels probably have only minor roles in shaping repolarization but, when activated by extracellular acetylcholine or adenosine, they can substantially shorten action potential duration in the atrium (Tristani-Firouzi M et al. Am J Med 2001 January; 110(1):50-9).
(§3) The following Table 1 illustrates the potency (IC50-values) of compounds of formulae I and II compared with other anti-arrhythmic drugs to inhibit the transmembrane currents IK(Ado) and IK(ACh) after stimulation of the currents with Adenosine or Acetylcholine (or Carbachol).

[9] = target: T3, IK(Ado), adenosine activated K-current; test: Voltage clamp on cardiomyocyte cultures: inhibition of adenosine-induced K-current; assay type: cell-based
Description: as §1, §2, §3

Compound: COc1ccc(C2CCN(CC[C@H]3CCOc4ccccc43)CC2)cc1OC [Terikalant]
Blocking activity on Ito [1]: Yes | Blocking activity on IK(ATP) [2]: No | Blocking activity on IKs [3]: Yes | Blocking activity on INa [4]: No | Blocking activity on IK1 [5]: Yes | Blocking activity on IK(ACh) [6]: Yes | IC50 [6]: 2000 nM | Blocking activity on IK(Ado) [7]: Yes | IC50 ([7]; current induced by adenosine): 2000 nM

Compound: Cn1c(NCCN(CCO)CCCc2ccc([N+](=O)[O-])cc2)cc(=O)n(C)c1=O [MS-551]
IC50 [6]: 11000 nM | Inhibition of IK (Ado) Induced by Adenosine, effect at 100 μM ([7]; literature): Some effect at 100 μM

Acute effects on IK(ACh) [8]: does not have acute effects | Acute effects on IK(Ado) [9]: does not have acute effects
Compound: N[C@@H](Cc1cc(I)c(Oc2ccc(O)c(I)c2)c(I)c1)C(=O)O [Example T3, triiodthyronine]

Compound: O=C(NCC1CCCCN1)c1cc(OCC(F)(F)F)ccc1OCC(F)(F)F (centres unmarked) [Flecainide]
Blocking activity on Ito [1]: Yes | Blocking activity on IK(ATP) [2]: Yes | Blocking activity on IKs [3]: No | Blocking activity on INa [4]: Yes | Blocking activity on IK1 [5]: No | Blocking activity on IK(ACh) [6]: Yes | IC50 [6]: 3600 nM

Compound: Cc1cccc(CCN2CCC(C(=O)c3ccc(NS(C)(=O)=O)cc3)CC2)n1 [Example E-4031]
IC50 [6]: 8000 nM | Inhibition of IK (Ado) Induced by Adenosine, effect at 100 μM ([7]; literature): Some effect at 100 μM

Compound: CC(C)N(CCC(C(N)=O)(c1ccccc1)c1ccccn1)C(C)C (centres unmarked) [Disopyramide]
Blocking activity on Ito [1]: Yes | Blocking activity on IK(ATP) [2]: Yes | Blocking activity on IKs [3]: Yes | Blocking activity on INa [4]: Yes | Blocking activity on IK1 [5]: No | Blocking activity on IK(ACh) [6]: Yes | IC50 [6]: 1700 nM

Compound: CC(C)NCC(O)COc1cccc2ccccc12 (centres unmarked) [Propranolol]
IC50 [6]: 56000 nM | IC50 ([7]; current induced by adenosine): 8000 nM

Compound: CCN(CC)CCCN(c1ccccc1)C1Cc2ccccc2C1 [Aprinidine]
Blocking activity on Ito [1]: Yes | Blocking activity on IKs [3]: No | Blocking activity on INa [4]: Yes | Blocking activity on IK1 [5]: No | Blocking activity on IK(ACh) [6]: Yes | IC50 [6]: 400 nM

Compound: CCCCc1oc2ccc(NS(C)(=O)=O)cc2c1C(=O)c1ccc(OCCCN(CCCC)CCCC)cc1 [Dronedarone]
Blocking activity on IKs [3]: Yes | Blocking activity on INa [4]: Yes | Blocking activity on IK(ACh) [6]: Yes | IC50 [6]: 10 nM

IC50 ([8]; current induced by ACh or carbachol): 1000 nM | IC50 ([9]; current induced by adenosine): 1000 nM
Compound: Cc1oc2ccccc2c1C(=O)c1cc(I)c(O)c(I)c1 [Example E5, 2-methyl-3-(3,5-diiodo-4-hydroxy-benzoyl)benzofuran]

Compound: CC(C)NCC(O)c1ccc(NS(C)(=O)=O)cc1 (racemic) [d,l-sotalol]
Blocking activity on Ito [1]: Yes | Blocking activity on IKs [3]: No | Blocking activity on INa [4]: No | Blocking activity on IK1 [5]: Yes | Blocking activity on IK(ACh) [6]: Yes (Mori) | IC50 [6]: 36000 nM | Blocking activity on IK(Ado) [7]: No | Inhibition of IK (Ado) Induced by Adenosine, in words ([7]; current induced by adenosine, literature): No effect

Compound: Cc1cccc(C)c1NC(=O)CC12CCCN1CCC2 [SUN 1165]
IC50 [6]: 29000 nM

Compound: C=C[C@H]1C[N@@]2CC[C@H]1C[C@@H]2[C@@H](O)c1ccnc2ccc(OC)cc12 [Quinidine]
Blocking activity on Ito [1]: Yes | Blocking activity on IK(ATP) [2]: Yes | Blocking activity on IKs [3]: No | Blocking activity on INa [4]: Yes | Blocking activity on IK1 [5]: No | Blocking activity on IK(ACh) [6]: Yes | IC50 [6]: 1600 nM
